Test results as given in patent US20090252788A1, “Balsalazide formulations and manufacture and use thereof” (Salix Pharmaceuticals, Inc., priority 2005, published 2009).

Experiment: Particle size distribution and specific surface area (LS 200, Small Volume Module, Fraunhofer optical model)
Assay type: physicochemical
Details: for Particle size, % < 10: 10% of volume below this size; for Particle size, % < 25: 25% of volume below this size; for Particle size, % < 50: 50% of volume below this size; for Particle size, % < 75: 75% of volume below this size; for Particle size, % < 100: 100% of volume below this size; for Mean particle size (volume statistics, arithmetic) / Median particle size (volume statistics, arithmetic) / Specific Surf. Area: calculations from 0.375 μm to 2000 μm
From the text: FIG. 2 depicts and the data below tabulate for Sample 1 the arithmetic statistics describing surface area, particle size, and cumulative volume characteristics for one lot of drug substance (feed material). The particle size distribution for this lot is depicted in FIG. 2.
Table 11 A-D tabulates the arithmetic statistics describing surface area, particle size, and cumulative volume characteristics for three lots of drug substance (feed material). The particle size distributions for these lots are depicted in FIG. 7. […] Of these three lots of drug substance, 100% of the particles are less than 83.89 μm, 373.1 μm, and 69.61 μm, respectively.
Table 12 tabulates the arithmetic statistics describing surface area, particle size, and cumulative volume characteristics for three lots of drug product (encapsulated granulation samples) that were manufactured with the three lots of drug substance (feed material) as depicted in FIG. 7. […] Of these three lots of drug product, 100% of the granules are less than 1660 μm, 2000 μm, and 1512 μm, respectively. The particle size distributions for these three lots are depicted in FIG. 8.

[1] = Particle Diameter (Lower) 0.375 μm
[2] = Particle Diameter (Lower) 0.656 μm
[3] = Particle Diameter (Lower) 1.149 μm
[4] = Particle Diameter (Lower) 2.011 μm
[5] = Particle Diameter (Lower) 3.519 μm
[6] = Particle Diameter (Lower) 6.158 μm
[7] = Particle Diameter (Lower) 10.78 μm
[8] = Particle Diameter (Lower) 18.86 μm
[9] = Particle Diameter (Lower) 33.01 μm
[10] = Particle Diameter (Lower) 57.77 μm
[11] = Particle Diameter (Lower) 101.1 μm
[12] = Particle Diameter (Lower) 176.9 μm
[13] = Particle Diameter (Lower) 309.6 μm
[14] = Particle Diameter (Lower) 541.9 μm
[15] = Particle Diameter (Lower) 948.3 μm
[16] = Particle Diameter (Lower) 1660 μm

SMILES	Cum. < Volume % [1] [%]	Diff. Volume % [1] [%]	Cum. < Volume % [2] [%]	Diff. Volume % [2] [%]	Cum. < Volume % [3] [%]	Diff. Volume % [3] [%]	Cum. < Volume % [4] [%]	Diff. Volume % [4] [%]	Cum. < Volume % [5] [%]	Diff. Volume % [5] [%]	Cum. < Volume % [6] [%]	Diff. Volume % [6] [%]	Cum. < Volume % [7] [%]	Diff. Volume % [7] [%]	Diff. Volume % [8] [%]	Cum. < Volume % [9] [%]	Diff. Volume % [9] [%]	Cum. < Volume % [10] [%]	Diff. Volume % [10] [%]	Cum. < Volume % [11] [%]	also measured
O=C(O)CCNC(=O)c1ccc(/N=N/c2ccc(O)c(C(=O)O)c2)cc1 [Feed Powder Sample A (#35.$01)]	0	1.82	1.82	3.88	5.70	4.90	10.6	9.30	19.9	18.4	38.3	25.7	63.9	21.8	10.2	95.9	3.32	99.3	0.75	100	Particle size, % < 10: 1.899 μm; Particle size, % < 25: 4.253 μm; Particle size, % < 50: 8.031 μm; Particle size, % < 75: 13.88 μm; Particle size, % < 100: 83.89 μm; Cum. < Volume % [8]: 85.7%; Diff. Volume % [11]: 0%; Cum. < Volume % [12]: 100%; Diff. Volume % [12]: 0%; Cum. < Volume % [13]: 100%; Mean particle size (volume statistics, arithmetic): 10.85 μm; Median particle size (volume statistics, arithmetic): 8.031 μm; Specific Surf. Area: 14230 cm^2/mL
O=C(O)CCNC(=O)c1ccc(/N=N/c2ccc(O)c(C(=O)O)c2)cc1 [Feed Powder Sample B (#41.$02)]	0	0.64	0.64	1.50	2.15	1.94	4.08	3.16	7.24	6.98	14.2	13.9	28.1	21.3	23.1	72.5	17.0	89.5	7.10	96.6	Cum. < Volume % [8]: 49.5%; Diff. Volume % [11]: 2.65%; Cum. < Volume % [12]: 99.3%; Diff. Volume % [12]: 0.73%
O=C(O)CCNC(=O)c1ccc(/N=N/c2ccc(O)c(C(=O)O)c2)cc1 [Feed Powder Sample C (#53.$02)]	0	1.96	1.96	4.37	6.33	6.03	12.4	11.3	23.7	20.6	44.2	26.7	70.9	20.7	7.30	98.9	1.07	99.99	0.013	100	Diff. Volume % [11]: 0%; Cum. < Volume % [12]: 100%; Diff. Volume % [12]: 0%
O=C([O-])CCNC(=O)c1ccc(/N=N/c2ccc(O)c(C(=O)[O-])c2)cc1.[Na+].[Na+] [Sample 1]	0	2.66	2.66	6.09	8.74	8.50	17.2	14.4	31.6	22.8	54.5	25.3	79.8	15.8	4.34	99.97	0.030	100	0	100	Particle size, % < 10: 1.266 μm; Particle size, % < 25: 2.827 μm; Particle size, % < 50: 5.584 μm; Particle size, % < 75: 9.624 μm; Particle size, % < 100: 43.67 μm; Cum. < Volume % [8]: 95.6%; Diff. Volume % [11]: 0%; Cum. < Volume % [12]: 100%; Diff. Volume % [12]: 0%; Cum. < Volume % [13]: 100%; Diff. Volume % [13]: 0%; Cum. < Volume % [14]: 100%; Diff. Volume % [14]: 0%; Cum. < Volume % [15]: 100%; Diff. Volume % [15]: 0%; Cum. < Volume % [16]: 100%; Diff. Volume % [16]: 0%; Mean particle size (volume statistics, arithmetic): 6.967 μm; Median particle size (volume statistics, arithmetic): 5.584 μm; Specific Surf. Area: 19389 cm^2/mL
O=C([O-])CCNC(=O)c1ccc(/N=N/c2ccc(O)c(C(=O)[O-])c2)cc1.[Na+].[Na+] [Sample 2]	0	2.91	2.91	6.59	9.50	9.37	18.9	16.1	35.0	24.3	59.3	24.1	83.4	12.6	3.78	99.8	0.23	100	0	100	Particle size, % < 10: 1.192 μm; Particle size, % < 25: 2.586 μm; Particle size, % < 50: 5.044 μm; Particle size, % < 75: 8.715 μm; Particle size, % < 100: 47.94 μm; Cum. < Volume % [8]: 96.0%; Diff. Volume % [11]: 0%; Cum. < Volume % [12]: 100%; Diff. Volume % [12]: 0%; Cum. < Volume % [13]: 100%; Diff. Volume % [13]: 0%; Cum. < Volume % [14]: 100%; Diff. Volume % [14]: 0%; Cum. < Volume % [15]: 100%; Diff. Volume % [15]: 0%; Cum. < Volume % [16]: 100%; Diff. Volume % [16]: 0%; Mean particle size (volume statistics, arithmetic): 6.503 μm; Median particle size (volume statistics, arithmetic): 5.044 μm; Specific Surf. Area: 20709 cm^2/mL
